From paper PMC7158045 (BMC Plant Biology, 2020) come the findings set out here.

Counter-ions that a name gives are not always drawn.

What all share (test): biochemical
Experiment [1] addresses T1, ZmDRIK1-R187-P492 (Zea mays, UniProt C0P4K9).
T1 construct: kinase domain, R187-P492
T1 sequence (C0P4K9 1-514): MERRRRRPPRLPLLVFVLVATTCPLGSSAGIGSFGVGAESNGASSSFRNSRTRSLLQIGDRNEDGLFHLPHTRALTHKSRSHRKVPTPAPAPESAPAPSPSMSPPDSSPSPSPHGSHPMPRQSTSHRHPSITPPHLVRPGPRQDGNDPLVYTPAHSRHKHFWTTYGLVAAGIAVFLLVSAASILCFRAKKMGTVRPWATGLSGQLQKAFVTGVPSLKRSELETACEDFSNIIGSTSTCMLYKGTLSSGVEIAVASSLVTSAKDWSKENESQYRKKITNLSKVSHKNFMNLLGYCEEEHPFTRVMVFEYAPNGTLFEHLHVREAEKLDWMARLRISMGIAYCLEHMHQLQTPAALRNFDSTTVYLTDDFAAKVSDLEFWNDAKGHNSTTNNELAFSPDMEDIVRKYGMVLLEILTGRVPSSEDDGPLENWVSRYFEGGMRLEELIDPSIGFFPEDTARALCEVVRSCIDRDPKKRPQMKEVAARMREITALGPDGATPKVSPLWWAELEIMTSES
Conditions: read-out: dTm B, DSF, Boltzmann fit, 0.1% DMSO.

Experiment [2] deals with T2, ZmDRIK1-K217-P492 (Zea mays, UniProt C0P4K9).
T2 construct: kinase domain, K217-P492
T2 sequence (C0P4K9 1-514): T1 sequence (C0P4K9 1-514)
Conditions: read-out: dTm B, sheet ZmDRIK1-K217-P492;; DSF, Boltzmann fit, 0.1% DMSO.

The target in experiment [3] is T3, ZmDRIK1 (DROUGHT RESPONSIVE INACTIVE KINASE 1), kinase domain (Zea mays, UniProt C0P4K9).
T3 construct: gene ZEAMMB73_Zm00001d028770; ZmDRIK1-KD R187-S514 (kinase domain)
T3 sequence (C0P4K9 187-514): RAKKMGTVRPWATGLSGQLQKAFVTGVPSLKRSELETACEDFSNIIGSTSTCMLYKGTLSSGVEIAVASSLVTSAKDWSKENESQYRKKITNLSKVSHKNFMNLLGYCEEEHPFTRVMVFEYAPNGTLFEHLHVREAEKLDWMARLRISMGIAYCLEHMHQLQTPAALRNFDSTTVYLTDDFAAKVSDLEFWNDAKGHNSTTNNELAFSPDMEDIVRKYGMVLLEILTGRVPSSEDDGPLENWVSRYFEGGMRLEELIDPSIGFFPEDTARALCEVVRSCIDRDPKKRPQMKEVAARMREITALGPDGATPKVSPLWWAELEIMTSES
Conditions: read-out: dTm B, sheet ZmDRIK1-R187-S514;; DSF, Boltzmann fit, 0.1% DMSO.

Experiment [4] addresses T4, ZmDRIK1-K217-S514 (Zea mays, UniProt C0P4K9).
T4 construct: kinase domain, K217-S514
T4 sequence (C0P4K9 1-514): T1 sequence (C0P4K9 1-514)
Conditions: read-out: dTm B, sheet ZmDRIK1-K217-S514;; DSF, Boltzmann fit, 0.1% DMSO.

Consider `O=C1NC(=O)/C(=C/c2ccc(-c3ccc(F)cc3O)o2)S1` [AS-252424], for which the ΔTm at 10 µM in experiment [1] came to 0.884 °C; in experiment [2], 1.37 °C; in experiment [3] it was 0.389 °C; in experiment [4], 1.39 °C.
The matching figures for `Cc1cc(Nc2cc(CN3CCOCC3)c3nc(C)c(Cc4ccc(Cl)cc4F)n3n2)n[nH]1` [LY2784544]: -0.165 °C, -0.85 °C, -0.894 °C and -0.0976 °C.
In the case of `COc1cc(F)c(F)c(Nc2ccc(I)cc2F)c1NS(=O)(=O)C1(C[C@H](O)CO)CC1` [Refametinib (RDEA119)], the ΔTm at 10 µM in experiment [1] is -0.163 °C; in experiment [2], -0.93 °C; in experiment [3] it was -1.12 °C; in experiment [4] it was -0.254 °C.
As for `C=CC(=O)Nc1cc(Nc2nccc(-c3cn(C)c4ccccc34)n2)c(OC)cc1N(C)CCN(C)C` [AZD9291], the ΔTm at 10 µM was -0.293 °C in experiment [1], -1.19 °C in experiment [2], -0.497 °C in experiment [3] and -0.27 °C in experiment [4].
As for `Cn1cc(C2=C(c3ccc(Cl)cc3Cl)C(=O)NC2=O)c2ccccc21` [SB216763], the ΔTm at 10 µM in experiment [1] is -0.115 °C; in experiment [2], -1.29 °C; in experiment [3], -0.887 °C; in experiment [4] it was -0.35 °C.
Take `COc1cc(Nc2ncc(F)c(Nc3ccc4c(n3)N(COP(=O)(O)O)C(=O)C(C)(C)O4)n2)cc(OC)c1OC` [Fostamatinib (R788)]: the ΔTm at 10 µM in experiment [1] was -0.222 °C; in experiment [2], -0.792 °C; in experiment [3], -0.579 °C; in experiment [4], -0.314 °C.
Consider `COc1cc2ncnc(Nc3ccc(Cl)cc3F)c2cc1OC` [ZM 306416], for which the ΔTm at 10 µM is -0.383 °C in experiment [1], -0.758 °C in experiment [2], -0.525 °C in experiment [3] and -0.336 °C in experiment [4].
Turning to `Nc1nc(N)c2nc(-c3cccc(O)c3)c(-c3cccc(O)c3)nc2n1` [TG100-115], the ΔTm at 10 µM in experiment [1] was -0.347 °C; in experiment [2], -0.6 °C; in experiment [3], -0.852 °C; in experiment [4] it was -0.395 °C.
In the case of `C=CC(=O)Nc1cccc(Nc2nc(Nc3ccc(Oc4ccnc(C(=O)NC)c4)cc3)ncc2F)c1` [CNX-774], the ΔTm at 10 µM in experiment [1] was -1.55 °C; in experiment [2], -0.472 °C; in experiment [3], -10.9 °C; in experiment [4], -0.729 °C.
Consider `COc1cc2/c(=N/c3ccc(Br)cc3F)nc[nH]c2cc1OCC1CCN(C)CC1` [Vandetanib (ZD6474)], for which the ΔTm at 10 µM in experiment [1] was -0.154 °C; in experiment [2] it was -0.91 °C; in experiment [3], -0.824 °C; in experiment [4], -0.239 °C.
Consider `CC(C)NC[C@@H](C(=O)N1CCN(c2ncnc3c2[C@H](C)C[C@H]3O)CC1)c1ccc(Cl)cc1` [GDC-0068], for which the ΔTm at 10 µM was -0.352 °C in experiment [1], -1.1 °C in experiment [2], -0.503 °C in experiment [3] and -0.251 °C in experiment [4].
For `CNC(=O)CN1CCC(Oc2cc3c(Nc4cccc(Cl)c4F)ncnc3cc2OC)CC1` [AZD8931 (Sapitinib)] the same measures were -0.238 °C, -1.14 °C, -1.22 °C and -0.326 °C.
For the compound `CNCc1ccc(-c2cc(-c3nc(-c4ccc(S(=O)(=O)C(C)C)cc4)cnc3N)on2)cc1` [VE-822], the ΔTm at 10 µM is -0.196 °C in experiment [1], -0.634 °C in experiment [2], -0.91 °C in experiment [3] and -0.454 °C in experiment [4].
The matching figures for `CN1CC[C@H](c2c(O)cc(O)c3c(=O)cc(-c4ccccc4Cl)oc23)[C@H](O)C1` [Flavopiridol HCl]: -0.272 °C, -1.16 °C, -0.837 °C and -0.391 °C.
On to `CCc1ccc(C=C2SC(=S)NC2=O)cc1` [10058-F4], for which the ΔTm at 10 µM in experiment [1] is -0.741 °C; in experiment [2], -1.02 °C; in experiment [3], -1.27 °C; in experiment [4] it was -0.172 °C.
Consider `CN1CCC(c2c(O)cc(O)c3c(=O)cc(-c4ccccc4Cl)oc23)C1CO` (centres unmarked) [P276-00], for which the ΔTm at 10 µM in experiment [1] is -0.274 °C; in experiment [2], -0.275 °C; in experiment [3], -0.748 °C; in experiment [4] it was -0.359 °C.
The matching figures for `Cc1nc(N)sc1-c1ccnc(Nc2ccc(N3CCOCC3)cc2)n1` [CYC116]: 0.313 °C, -0.775 °C, -1.14 °C and -0.183 °C.
As for `O=C(NC1CCNCC1)c1n[nH]cc1NC(=O)c1c(Cl)cccc1Cl` [AT7519], the ΔTm at 10 µM is 0.0148 °C in experiment [1], 0.0166 °C in experiment [2], -0.866 °C in experiment [3] and -0.106 °C in experiment [4].
The matching figures for `O=C(Cc1ccc(-c2ccc(OCCN3CCOCC3)cc2)cn1)NCc1ccccc1` [KX2-391]: -0.338 °C, -0.496 °C, -0.49 °C and -0.346 °C.
For `CNC(=O)c1ccccc1Nc1nc(Nc2ccc(N3CCOCC3)cc2OC)ncc1Cl` [TAE226 (NVP-TAE226)], the ΔTm at 10 µM in experiment [1] is -0.231 °C; in experiment [2], -0.725 °C; in experiment [3], -0.781 °C; in experiment [4], -0.321 °C.
`COc1ccc(Cl)c(Nc2nc3ccccc3nc2NS(=O)(=O)c2cccc(NC(=O)C(C)(C)N)c2)c1` [XL147]: the ΔTm at 10 µM was -0.0333 °C in experiment [1], 0.134 °C in experiment [2], -0.972 °C in experiment [3] and 0.807 °C in experiment [4].
As to `CO[C@H]1C[C@@H]2CC[C@@H](C)[C@@](O)(O2)C(=O)C(=O)N2CCCC[C@H]2C(=O)O[C@H]([C@H](C)C[C@@H]2CC[C@@H](OCCO)[C@H](OC)C2)CC(=O)[C@H](C)/C=C(\C)[C@@H](O)[C@@H](OC)C(=O)[C@H](C)C[C@H](C)/C=C/C=C/C=C/1C` [Everolimus (RAD001)], the ΔTm at 10 µM was -0.526 °C in experiment [1], -1.22 °C in experiment [2], -0.644 °C in experiment [3] and -0.327 °C in experiment [4].
With `Cc1c(NC(=O)OC[C@@H]2COCCN2)cn2ncnc(Nc3ccc4c(cnn4Cc4cccc(F)c4)c3)c12` [AC480 (BMS-599626)], the ΔTm at 10 µM in experiment [1] is -0.278 °C; in experiment [2], -0.766 °C; in experiment [3] it was -0.997 °C; in experiment [4] it was -0.265 °C.
For `Cc1[nH]c2ccccc2c1C1=C(NCCc2ccc(F)cc2)C(=O)N(C)C1=O` [IM-12] the same measures were -0.527 °C, -1.43 °C, -0.881 °C and -0.628 °C.
For `c1cncc(CN2CCC(n3ncc4c(N5CCOCC5)nc(-c5ccc6[nH]ccc6c5)nc43)CC2)c1` [WAY-600] the same measures were -0.498 °C, -1.19 °C, -0.643 °C and -0.731 °C.
The matching figures for `N#Cc1c(Oc2ccc(F)c(NC(=O)Cc3cccc(C(F)(F)F)c3)c2)ccc2nc(NC(=O)C3CC3)sc12` [TAK-632]: -0.521 °C, 3.91 °C, 1.64 °C and -2.01 °C.
For the compound `O=c1[nH]c2ccc(Cl)cc2c(N[C@@H]2CN3CCC2CC3)c1-c1nc2ccccc2[nH]1` [CHIR-124], the ΔTm at 10 µM in experiment [1] is -0.356 °C; in experiment [2], -0.621 °C; in experiment [3], -0.602 °C; in experiment [4], -0.3 °C.
For `CC[C@@H]1C(=O)N(C)c2cnc(Nc3ccc(C(=O)N[C@H]4CC[C@H](N5CCN(CC6CC6)CC5)CC4)cc3OC)nc2N1C(C)C` [Volasertib (BI 6727)] the same measures were -0.282 °C, -1.3 °C, -0.792 °C and -0.29 °C.
For the compound `O=C(Nc1ccc(OC(F)(F)F)cc1)c1sccc1NCc1ccnc2ccccc12` [OSI-930], the ΔTm at 10 µM is -3.67 °C in experiment [1], -0.971 °C in experiment [2], -0.0551 °C in experiment [3] and -5.53 °C in experiment [4].
